Assay results: patent US20090093423A2, “NOVEL 2-SUBSTITUTED METHYL PENAM DERIVATIVES” (Orchid Chemicals and Pharmaceuticals Limited, priority 2006, published 2009)

Molecular target: Penicillinase enzyme
Experiment: β-Lactamase assay (Centa substrate)
Assay type: biochemical
Conditions: FIG. 1
Protocol: Representative novel compounds were subjected to β-lactamase assay to determine and compare their IC50 with that of Tazo as described elsewhere (Bebrone et. al, 2001, Antimicrob. Agents. Chemother. 45(6): 1868-1871; Jamieson et. al, 2003, Antimicrob. Agents. Chemother. 47(5): 1652-1657). Briefly enzyme inhibition assays with Tazo acid as the standard inhibitor for % inhibitions & IC50 value with optimized concentrations of Penicillinase enzyme & Centa β-lactamase substrate were performed.

Row | IC50 compared with Tazo | Structure (SMILES)
1 | comparatively lower | CCC[n+]1ccn(C[C@@]2(C)[C@H](C(=O)[O-])N3C(=O)C[C@H]3S2(=O)=O)n1 [Example 3, 1-{[(2S,3S,5R)-2-Carboxy-3-methyl-4,4,7-trioxo-4-thia-1-azabicyclo[3.2.0]hept-3-yl]methyl}-3-n-propyl-1H-1,2,3-triazol-3-ium]
2 | comparatively lower | C=CC[n+]1ccn(C[C@@]2(C)[C@H](C(=O)[O-])N3C(=O)C[C@H]3S2(=O)=O)n1 [Example 4, 1-{[(2S,3S,5R)-2-Carboxy-3-methyl-4,4,7-trioxo-4-thia-1-azabicyclo[3.2.0]hept-3-yl]methyl}-3-allyl-1H-1,2,3-triazol-3-ium]
3 | comparatively lower | C[C@]1(Cn2cc[n+](CC(N)=O)n2)[C@H](C(=O)[O-])N2C(=O)C[C@H]2S1(=O)=O [Example 5, 1-{[(2S,3S,5R)-2-Carboxy-3-methyl-4,4,7-trioxo-4-thia-1-azabicyclo[3.2.0]hept-3-yl]methyl}-3-(2-amino-2-oxoethyl)-1H-1,2,3-triazol-3-ium]
4 | comparatively lower | C[C@]1(Cn2cc[n+](CC(=O)N3CCOCC3)n2)[C@H](C(=O)[O-])N2C(=O)C[C@H]2S1(=O)=O [Example 7, 1-{[(2S,3S,5R)-2-Carboxy-3-methyl-4,4,7-trioxo-4-thia-1-azabicyclo[3.2.0]hept-3-yl]methyl}-3-(2-morpholin-4-yl-2-oxoethyl)-1H-1,2,3-triazol-3-ium]
